Measured values taken from ChEMBL document CHEMBL1201862, “PubChem BioAssay data set” (2004).
Calls of active or inactive are those of the source.

Columns and labels:
[1] = HEp-2 cell cytotoxicity, dose response, cytotoxicity control for RSV inhibitor project, HTS (AID 2410); assay type: functional; conditions: human respiratory syncytial virus
cells [2] = assay type: functional, cell-based
cells [3] = assay type: functional, cell-based; remark: listed apart in the source
[4] = biological target: FAD-linked sulfhydryl oxidase ALR (Homo sapiens, UniProt P55789); assay: inhibitors of human ALR sulfhydryl oxidase, dose response, biochemical, H2O2 detection, luminescence, cherry-pick (AID 493248)
[5] = Luminescence Cell-Based Dose Confirmation HTS to Identify Activators of 5'UTR Stem-Loop Driven Alpha-Synuclein mRNA Translation in H4 Neuroglioblastoma Cells. [Related pubchem assays: 1829 (Project Summary), 1814 (Primary HTS)]; assay type: functional
Protein skinhead-1 = biological target: T1, Protein skinhead-1 (Caenorhabditis elegans, UniProt P34707); assay type: functional
T1 sequence (P34707 whole entry): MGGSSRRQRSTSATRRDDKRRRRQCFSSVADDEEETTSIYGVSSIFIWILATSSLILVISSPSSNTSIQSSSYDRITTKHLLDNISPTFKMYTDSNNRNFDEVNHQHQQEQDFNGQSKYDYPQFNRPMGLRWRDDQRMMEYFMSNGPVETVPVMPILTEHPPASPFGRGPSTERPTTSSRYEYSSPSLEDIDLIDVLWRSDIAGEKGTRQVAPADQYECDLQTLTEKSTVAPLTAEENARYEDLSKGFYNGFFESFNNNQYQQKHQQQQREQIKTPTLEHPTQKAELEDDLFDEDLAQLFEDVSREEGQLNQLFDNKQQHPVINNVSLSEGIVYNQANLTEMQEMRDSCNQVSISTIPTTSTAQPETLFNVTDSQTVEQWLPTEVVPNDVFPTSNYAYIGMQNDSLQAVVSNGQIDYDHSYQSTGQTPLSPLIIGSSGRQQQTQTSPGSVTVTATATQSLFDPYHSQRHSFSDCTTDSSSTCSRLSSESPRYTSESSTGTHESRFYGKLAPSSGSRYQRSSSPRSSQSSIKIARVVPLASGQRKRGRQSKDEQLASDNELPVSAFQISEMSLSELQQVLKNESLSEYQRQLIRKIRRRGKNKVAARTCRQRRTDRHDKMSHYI

[6] = growth suppression of beta-catenin-knockout colon cells, dose response, cell-based, HCT116, human colon tumor (AID 1045); assay type: functional;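 also: HCT116 colon tumor cells with beta catenin knocked out; cells exposed to compound for 60 hours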
[7] = growth suppression of PTEN-null colon cells, dose response, cell-based, HCT116 PTEN knockout (AID 1047); assay type: functional;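 also: HCT116 colon tumor cells with PTEN knocked out; cells exposed to compound for 60 hours before readout; potency for loss of cell viability measured by luminescence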
Nonstructural protein 1 = Nonstructural protein 1 (Influenza A virus, UniProt Q194T2); assay type: functional, Influenza A virus (A/California/07/2009(H1N1))
[8] = HepG2 cell cytotoxicity, dose response, cytotoxicity control for Shn3 inhibitor project, CellTiter-Glo, cherry-picked (AID 624134); assay type: functional, cell-based
[9] = Shn3 3'UTR reporter inhibitors, dose response, cell-based, Clone20 osteoblasts, firefly luciferase, cherry-picked (AID 624132); assay type: functional;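 also: firefly luciferase luminescence from reporter carrying the Shn3 3'UTR in osteoblasts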
[10] = control 3'UTR Renilla luciferase suppression, dose response, counter-screen for Shn3 inhibitor project, cell-based, Clone20-Shn3RL, cherry-picked (AID 624133); assay type: functional
[11] = inhibitors of intracellular T. cruzi replication, confirmation, NIH3T3 host cells, beta-gal luminescence (AID 2044); assay type: functional, cell-based;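 also: intracellular parasites grown in NIH/3T3 mouse fibroblasts as host cells; luminescent beta-galactosidase reporter signal from transgenic T. cruzi replicating inside host cells; inhibitors lower the luminescence signal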
INS1 = assay: beta cell apoptosis inhibitors, cytokine rescue, dose response, luminescence, retest (AID 449756); assay type: functional, cell-based; conditions: Rattus norvegicus;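 also: cell death triggered by IL-1 beta plus TNF-alpha plus IFN-gamma mixture; protective hits raise ATP signal compared with cytokine alone wells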
[12] = cytotoxicity toward NIH3T3 fibroblasts, dose response, counter-screen, cell-based, ATP luminescence, mouse fibroblasts (AID 2010); assay type: functional;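 also: cells exposed to compound for about 90 hours before reading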
[13] = Luminescence Cell-Based Dose Response HTS to Identify Activators of Luciferase Translation or Activity in H4 […] Cells. [Related pubchem assays: 1829 (Project Summary), 1814 (Primary HTS)]; assay type: functional
H4 = assay: Luminescence Cell-Based Dose Response HTS to Identify Activators of 5'UTR Stem-Loop Driven Prion Protein mRNA Translation in H4 Neuroglioblastoma Cells. [Related pubchem assays: 1829 (Project Summary), 1814 (Primary HTS)]; assay type: functional; conditions: Homo sapiens
[14] = biological target: Peroxisome proliferator-activated receptor gamma/Nuclear receptor coactivator 2 (Homo sapiens, UniProt P37231); assay: TR-FRET dose response biochemical High Throughput Screening assay for agonists of the steroid receptor coactivator 2 (SRC-2) recruitment by the peroxisome proliferator-activated receptor gamma (PPAR gamma): non-selective agonists. [Related pubchem assays: 1297, 1032 ]; assay type: functional
[15] = biological target: Peroxisome proliferator-activated receptor gamma/Nuclear receptor coactivator 1 (Homo sapiens, UniProt P37231); assay: TR-FRET dose response biochemical High Throughput Screening assay for agonists of the steroid receptor coactivator 1 (SRC-1) recruitment by the peroxisome proliferator-activated receptor gamma (PPAR gamma): non-selective agonists. [Related pubchem assays (depositor defined):AID1300, AID1808, AID504735, AID631]; assay type: protein assay
[16] = biological target: Peroxisome proliferator-activated receptor gamma/Nuclear receptor coactivator 3 (Homo sapiens, UniProt P37231); assay: TR-FRET dose response biochemical High Throughput Screening assay for agonists of the steroid receptor coactivator 3 (SRC-3) recruitment by the peroxisome proliferator-activated receptor gamma (PPAR gamma): non-selective agonists. [Related pubchem assays: 1301 (Confirmation screen.), 1048 (Primary screen.)]; assay type: functional
[17] = test system: Streptococcus sp. 'group A'; assay: growth inhibition of control SK(-) GAS strain, dose response, counter-screen for streptokinase expression inhibitor project, luminescence, kanamycin, BacTiterGlo, confirmation (AID 1900); assay type: functional, organism-based
Streptococcus = assay: Group A Streptococcus viability loss, dose response, counter-screen for streptokinase expression inhibitor project, luminescence, BacTiterGlo (AID 1915); assay type: functional, organism-based;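 also: potency for reduction of bacterial viability or growth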
Streptokinase A = biological target: T2, Streptokinase A (Streptococcus pyogenes serotype M1, UniProt P10520); assay: S. pyogenes streptokinase expression inhibitors, potency, dose response, plasminogen activation absorbance, OD405 (AID 1914); assay type: functional, Streptococcus pyogenes M1 GAS;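 also: secreted streptokinase activity via plasminogen activation per viability signal from cell pellet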
T2 sequence (P10520 whole entry): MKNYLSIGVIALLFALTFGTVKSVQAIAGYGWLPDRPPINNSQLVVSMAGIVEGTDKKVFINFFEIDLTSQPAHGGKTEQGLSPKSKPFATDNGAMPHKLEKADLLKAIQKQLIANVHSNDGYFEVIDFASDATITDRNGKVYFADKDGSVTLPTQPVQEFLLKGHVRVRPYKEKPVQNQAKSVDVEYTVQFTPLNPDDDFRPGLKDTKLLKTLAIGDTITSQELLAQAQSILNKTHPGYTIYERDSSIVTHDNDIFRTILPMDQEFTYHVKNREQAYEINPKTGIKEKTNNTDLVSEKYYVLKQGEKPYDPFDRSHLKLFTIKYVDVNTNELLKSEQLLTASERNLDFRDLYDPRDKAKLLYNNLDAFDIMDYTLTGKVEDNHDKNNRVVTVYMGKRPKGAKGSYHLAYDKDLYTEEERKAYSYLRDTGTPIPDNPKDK

Chain of Nonstructural protein 1 (Q194T2 whole entry): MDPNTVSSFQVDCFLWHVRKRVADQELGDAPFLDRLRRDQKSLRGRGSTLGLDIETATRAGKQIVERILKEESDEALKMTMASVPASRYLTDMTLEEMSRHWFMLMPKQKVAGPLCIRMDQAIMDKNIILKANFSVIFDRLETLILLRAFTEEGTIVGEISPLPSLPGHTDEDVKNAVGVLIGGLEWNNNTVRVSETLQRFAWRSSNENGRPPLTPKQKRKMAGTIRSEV
Chain of FAD-linked sulfhydryl oxidase ALR (P55789 whole entry): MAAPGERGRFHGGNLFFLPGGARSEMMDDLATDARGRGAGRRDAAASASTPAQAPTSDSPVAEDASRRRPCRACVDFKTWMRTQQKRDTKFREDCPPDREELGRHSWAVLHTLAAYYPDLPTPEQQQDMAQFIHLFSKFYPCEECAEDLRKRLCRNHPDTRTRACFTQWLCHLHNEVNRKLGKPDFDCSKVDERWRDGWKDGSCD
Chain of Peroxisome proliferator-activated receptor gamma/Nuclear receptor coactivator 1 (P37231 whole entry): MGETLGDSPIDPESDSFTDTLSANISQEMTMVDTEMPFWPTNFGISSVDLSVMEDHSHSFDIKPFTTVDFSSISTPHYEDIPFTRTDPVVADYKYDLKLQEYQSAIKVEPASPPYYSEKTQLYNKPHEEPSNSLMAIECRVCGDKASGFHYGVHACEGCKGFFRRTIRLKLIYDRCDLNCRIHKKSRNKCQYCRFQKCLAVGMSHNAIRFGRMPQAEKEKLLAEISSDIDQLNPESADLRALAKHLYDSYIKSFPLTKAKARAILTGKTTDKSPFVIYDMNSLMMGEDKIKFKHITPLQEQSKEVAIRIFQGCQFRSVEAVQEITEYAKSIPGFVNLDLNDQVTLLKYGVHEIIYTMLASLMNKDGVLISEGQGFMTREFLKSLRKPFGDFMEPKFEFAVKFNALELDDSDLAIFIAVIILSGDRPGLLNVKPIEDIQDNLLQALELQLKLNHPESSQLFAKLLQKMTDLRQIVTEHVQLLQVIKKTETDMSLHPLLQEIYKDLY
Chain of Peroxisome proliferator-activated receptor gamma/Nuclear receptor coactivator 1 (Q15788 whole entry, further chain): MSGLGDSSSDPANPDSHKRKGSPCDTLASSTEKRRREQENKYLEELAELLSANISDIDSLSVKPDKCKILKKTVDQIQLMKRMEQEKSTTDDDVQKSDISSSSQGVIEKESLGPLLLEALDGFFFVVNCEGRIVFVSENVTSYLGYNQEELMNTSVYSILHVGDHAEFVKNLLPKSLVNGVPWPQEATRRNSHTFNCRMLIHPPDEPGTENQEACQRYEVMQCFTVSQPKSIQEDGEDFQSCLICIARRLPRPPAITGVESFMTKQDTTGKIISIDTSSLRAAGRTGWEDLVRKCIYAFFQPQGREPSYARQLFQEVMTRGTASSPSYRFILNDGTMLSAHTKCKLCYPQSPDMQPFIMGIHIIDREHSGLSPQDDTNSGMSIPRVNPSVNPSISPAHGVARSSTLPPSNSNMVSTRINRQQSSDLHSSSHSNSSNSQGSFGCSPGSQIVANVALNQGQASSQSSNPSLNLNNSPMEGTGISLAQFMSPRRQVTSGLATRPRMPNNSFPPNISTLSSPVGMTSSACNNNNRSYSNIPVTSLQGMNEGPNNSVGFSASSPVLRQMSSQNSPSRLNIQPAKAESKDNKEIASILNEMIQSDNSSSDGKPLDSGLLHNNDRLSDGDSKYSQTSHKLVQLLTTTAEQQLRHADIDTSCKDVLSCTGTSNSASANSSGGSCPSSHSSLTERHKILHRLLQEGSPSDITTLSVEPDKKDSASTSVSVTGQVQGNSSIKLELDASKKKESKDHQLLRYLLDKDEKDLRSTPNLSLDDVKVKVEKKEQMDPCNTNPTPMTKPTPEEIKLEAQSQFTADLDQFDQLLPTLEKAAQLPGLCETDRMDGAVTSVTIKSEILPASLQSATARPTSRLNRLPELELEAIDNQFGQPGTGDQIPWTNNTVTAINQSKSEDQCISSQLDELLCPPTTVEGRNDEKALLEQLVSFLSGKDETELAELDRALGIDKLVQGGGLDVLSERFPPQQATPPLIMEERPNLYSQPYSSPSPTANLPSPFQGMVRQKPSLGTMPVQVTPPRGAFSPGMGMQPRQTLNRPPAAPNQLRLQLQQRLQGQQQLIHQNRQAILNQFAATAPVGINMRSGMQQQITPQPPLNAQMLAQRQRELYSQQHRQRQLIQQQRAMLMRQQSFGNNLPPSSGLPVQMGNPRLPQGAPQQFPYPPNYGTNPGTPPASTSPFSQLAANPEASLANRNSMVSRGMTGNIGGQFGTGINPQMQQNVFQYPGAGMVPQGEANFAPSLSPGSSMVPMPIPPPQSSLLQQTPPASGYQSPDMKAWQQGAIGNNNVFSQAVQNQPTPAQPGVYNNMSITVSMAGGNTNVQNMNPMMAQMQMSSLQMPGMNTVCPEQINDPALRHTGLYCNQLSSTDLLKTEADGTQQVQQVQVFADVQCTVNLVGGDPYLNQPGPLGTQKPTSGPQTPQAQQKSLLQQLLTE
Chain of Peroxisome proliferator-activated receptor gamma/Nuclear receptor coactivator 3 (P37231 whole entry): as the sequence (P37231 whole entry) above
Chain of Peroxisome proliferator-activated receptor gamma/Nuclear receptor coactivator 3 (Q9Y6Q9 whole entry, further chain): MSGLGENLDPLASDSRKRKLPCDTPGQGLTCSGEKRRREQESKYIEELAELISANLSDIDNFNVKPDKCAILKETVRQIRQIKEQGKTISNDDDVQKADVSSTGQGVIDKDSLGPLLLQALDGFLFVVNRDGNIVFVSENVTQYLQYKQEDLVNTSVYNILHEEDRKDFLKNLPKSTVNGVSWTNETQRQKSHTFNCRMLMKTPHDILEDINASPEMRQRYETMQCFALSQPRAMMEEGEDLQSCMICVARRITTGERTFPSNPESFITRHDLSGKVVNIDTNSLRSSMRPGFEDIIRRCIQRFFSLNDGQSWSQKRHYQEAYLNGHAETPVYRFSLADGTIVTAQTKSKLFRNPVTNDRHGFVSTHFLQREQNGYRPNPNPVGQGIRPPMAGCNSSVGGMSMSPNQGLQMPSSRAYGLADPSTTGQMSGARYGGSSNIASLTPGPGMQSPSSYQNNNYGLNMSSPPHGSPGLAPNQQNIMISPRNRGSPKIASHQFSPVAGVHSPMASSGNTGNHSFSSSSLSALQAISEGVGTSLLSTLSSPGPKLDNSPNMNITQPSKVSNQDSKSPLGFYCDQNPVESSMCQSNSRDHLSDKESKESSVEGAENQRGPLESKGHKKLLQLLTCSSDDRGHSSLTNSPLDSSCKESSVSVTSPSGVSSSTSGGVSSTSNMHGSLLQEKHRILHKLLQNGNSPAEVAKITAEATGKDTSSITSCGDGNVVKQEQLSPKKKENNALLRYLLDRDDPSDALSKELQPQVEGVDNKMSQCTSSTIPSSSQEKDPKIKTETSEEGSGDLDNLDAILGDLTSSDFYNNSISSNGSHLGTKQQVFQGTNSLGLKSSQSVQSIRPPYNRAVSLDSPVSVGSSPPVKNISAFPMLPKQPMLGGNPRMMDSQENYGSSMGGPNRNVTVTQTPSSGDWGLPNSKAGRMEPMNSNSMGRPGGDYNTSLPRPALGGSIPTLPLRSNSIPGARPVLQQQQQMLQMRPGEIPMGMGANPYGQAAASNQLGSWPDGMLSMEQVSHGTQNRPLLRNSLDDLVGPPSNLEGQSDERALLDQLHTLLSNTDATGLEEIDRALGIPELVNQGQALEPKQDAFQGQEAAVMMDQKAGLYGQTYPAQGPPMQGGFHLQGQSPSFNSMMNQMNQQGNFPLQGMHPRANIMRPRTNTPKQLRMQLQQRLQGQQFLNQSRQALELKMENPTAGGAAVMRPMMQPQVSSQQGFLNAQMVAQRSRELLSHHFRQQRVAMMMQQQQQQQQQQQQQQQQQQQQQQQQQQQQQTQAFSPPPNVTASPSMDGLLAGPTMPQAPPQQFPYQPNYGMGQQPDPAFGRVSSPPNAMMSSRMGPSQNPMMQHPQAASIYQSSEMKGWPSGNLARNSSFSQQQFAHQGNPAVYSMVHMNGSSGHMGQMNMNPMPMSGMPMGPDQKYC

OCCCn1c(C2CCCN2c2nc(-c3ccc(F)cc3)cs2)nc2cc(C(F)(F)F)ccc21 (centres undefined)
CC50 [1]: 16.8 µM (active)

Cc1ccc(C)c(CNS(=O)(=O)c2ccc3c(c2)C(C)(C)C(=O)N3C)c1
EC50 (cells [2]): > 350 µM (not active)
EC50 (cells [3]): > 350 µM (not active)

Cc1cc(C)c2c(-n3cccc3)c(C(=O)NNS(=O)(=O)c3ccc(Br)cc3)sc2n1
CC50 [1]: 19 µM (active)
AC50 [4]: 74.4 µM (active)

FC(F)Oc1ccc(C2NC(c3ccccc3)=NO2)cc1 (centres undefined)
EC50 [5]: 0.115 µM (active)
IC50 (Protein skinhead-1): 80.6 µM (inactive)

CC(OC(=O)c1ncc(Cl)c(Cl)c1Cl)C(=O)NC1(C#N)CCCCC1 (centres undefined)
EC50 (cells [2]): > 350 µM (not active)
EC50 (cells [3]): > 350 µM (not active)

COc1ccccc1N1CCN(c2cc(=O)n(Cc3ccc(F)cc3)c(=O)[nH]2)CC1
EC50 [6]: 10.1 µM (active)
EC50 [7]: 10.5 µM (active)

COc1ccccc1C(=O)Nc1ccc(S(=O)(=O)N2CCc3ccccc32)cc1
CC50 [1]: 48.7 µM (active)

CSc1sc(C(=O)N2CCCCC2)c(-c2cccs2)c1C#N
EC50 (cells [2]): > 350 µM (not active)
EC50 (cells [3]): > 350 µM (not active)

CC(C(=O)Nc1ccccc1-c1ccccc1)N(C)Cc1nc(O)c2ccccc2n1 (centres undefined)
EC50 (cells [2]): > 350 µM (not active)
EC50 (cells [3]): > 350 µM (not active)

O=S(=O)(c1ccccc1)N1CCC(c2nc(O)c3nnn(Cc4cccc(Cl)c4)c3n2)CC1
CC50 [1]: 22.3 µM (active)

Oc1cc(Nc2cccnc2)cc2cccnc12
IC50 (Nonstructural protein 1): 8.89 µM (active)
AC50 [8]: 38.8 µM (active)
AC50 [9]: 2.12 µM (active)
AC50 [10]: 4.72 µM (active)

CC(=O)c1cccc(NS(=O)(=O)c2ccc(-c3cc(C)no3)s2)c1
EC50 (cells [2]): > 350 µM (not active)
EC50 (cells [3]): > 350 µM (not active)

Clc1ccc(CSc2ccc(-c3ccccn3)nn2)cc1
EC50 (cells [2]): 12.5 µM (active)
EC50 (cells [3]): 43.7 µM (active)
EC50 [11]: 1.84 µM (active)
AC50 (INS1): 5.06 µM (active)
EC50 [12]: > 30 µM (not active)

CCS(=O)(=O)c1ccc(-c2cccc(NC(=O)COc3ccccc3)c2)nn1
EC50 (cells [2]): > 350 µM (not active)
EC50 (cells [3]): > 350 µM (not active)

CCOCCn1c(COc2ccccc2)nc2ccccc21
IC50 (Protein skinhead-1): > 100 µM (inactive)

COCCn1c(C)cc(C(=O)CN2C(=O)NC3(CCCCCCC3)C2=O)c1C
EC50 [5]: 0.94 µM (active)
EC50 [13]: 0.283 µM (active)
EC50 (H4): 8.28 µM (active)

CCc1ccc(Nc2c([N+](=O)[O-])nn(-c3ccccc3)[n+]2[O-])cc1
EC50 [11]: 0.461 µM (active)
IC50 (Nonstructural protein 1): 81.8 µM (active)
EC50 [12]: > 60 µM (not active)

Cc1cccc(/C=C/C(=O)c2ccc(NC3=NCCCS3)cc2)c1
EC50 [11]: 2.23 µM (active)
EC50 [5]: 23.3 µM (active)
IC50 (Protein skinhead-1): 19.9 µM (active)
EC50 [13]: 9.88 µM (active)
EC50 [12]: > 60 µM (not active)
EC50 (H4): > 120 µM (not active)

COc1ccc(N=Nc2cnc(C)nc2-c2ccccc2)cc1
IC50 (Nonstructural protein 1): 43.8 µM (active)

COc1ccc(OC)c(-c2csc(NC(=O)Cc3ccccc3OC)n2)c1
CC50 [1]: 25.3 µM (active)

Cc1ccc(CNC(=O)CSc2c3c(nc4cc(Cl)ccc24)CCCC3)o1
EC50 [14]: > 79.4 µM (not active)
EC50 [15]: > 79.4 µM (inactive)
EC50 [16]: > 79.4 µM (not active)

COc1cccc2[nH]c3c(N4CCc5ccccc5C4)ncnc3c12
CC50 [1]: > 50 µM (active)

CC(C)c1ccc(NC(=O)[C@@H]2CCC(=O)N2C2OC(=O)c3ccccc32)cc1 (some centres undefined)
EC50 [5]: 0.143 µM (active)
EC50 [13]: 24.5 µM (active)
EC50 (H4): 38.2 µM (active)

Cc1ccc2[nH]c(SCC(=O)c3ccc(O)cc3O)nc2c1
EC50 [5]: 9.48 µM (active)
EC50 [13]: 16.5 µM (active)
EC50 (H4): 52.9 µM (active)

O=C(Nc1ccc2c(c1)nc1n2CCN(Cc2ccccc2)C1)c1cccs1
EC50 [5]: 17.2 µM (active)
EC50 [13]: 13.6 µM (active)
EC50 (H4): > 120 µM (not active)

COc1ccccc1C(=O)Nc1nnc(CCc2ccccc2)s1
EC50 [5]: > 120 µM (not active)
EC50 [13]: 8.71 µM (active)
EC50 (H4): > 120 µM (not active)

COc1ccc(-c2csc(NCCc3nc4cc(Cl)c(Cl)cc4n3CCCO)n2)cc1
CC50 [1]: 19.6 µM (active)

C#Cc1ccc2c(c1)COc1c3ccccc3nn1-2
IC50 (Protein skinhead-1): > 100 µM (inactive)

CCOC(=O)c1sc(NC(=O)CN2CC(C)OC(C)C2)nc1C (centres undefined)
IC50 (Protein skinhead-1): > 100 µM (inactive)

CN(C)c1cccc(O)c1
IC50 (Protein skinhead-1): > 100 µM (inactive)

CCCOc1ccc(/C=N/Nc2ccccc2[N+](=O)[O-])c(OCCC)c1
IC50 (Nonstructural protein 1): 7.73 µM (active)

Cc1ccc(-c2nn(-c3ccccc3)cc2/C=N/NC(=O)CSc2nnc(C)n2-c2ccccc2)cc1
EC50 [17]: 7.47 µM (active)
EC50 [5]: 13.4 µM (active)
EC50 [13]: 63.4 µM (active)
EC50 (Streptococcus): 33.5 µM (active)
EC50 (Streptokinase A): 65.8 µM (active)
EC50 (H4): 16.6 µM (active)

C/C(=N\OC(=O)c1ccc(F)cc1)c1sc(-c2ccccc2)nc1C
CC50 [1]: > 50 µM (active)

O=C(O)CN(CC(=O)O)CC(=O)O [NITRILOTRIACETIC ACID]
IC50 (Nonstructural protein 1): 17.7 µM (active)
